One block for each compound: values may come before it.
Assays:
[1] = Drug release rate into 50:50 DMSO:water release media, HPLC; assay type: physicochemical; settings: for completeness of release after 7 days / course of release (plateau): FOLFIRINOX components from device, FIG. 5; for course of release (plateau): over 7 days
Method: Drug release rate was measured using 50 mL of release media consisting of 50:50 DMSO:water to ensure that all drugs in the composition remained under sink conditions. Each device was suspended above the release media in a 50 mL sealed Duran bottle with only the permeable release zone in contact with the release media. The Duran bottle was subsequently placed in a shaking incubator at 37° C. and 60 RPM. 5 mL samples of release media were removed and replaced with 5 mL of fresh media either every day for 6 days or at day 1, 3, 5 and 7. The samples were analysed for drug concentration using HPLC.
Release of the drug oxaliplatin by (i) an exposed sponge and (ii) a device according to the present invention was compared. The sponge was a gelatin sponge exposed to 50 mL of release media consisting of 50:50 DMSO. The sponge had the proportions 5 mm×10 mm×10 mm. […] The implantable device according to the invention contained a sponge within the enclosed space. Drug release was determined according to the methodology outlined above.
Release of the drug components of the FOLFIRINOX regimen from a device according to the invention was investigated. […] The implantable device according to the invention contained a sponge within the enclosed space. Drug release was determined according to the methodology outlined above.
The release of the drug irinotecan over 6 days through various membranes for use as the permeable release zone was investigated, to show how the device of the invention provides the skilled person with control over the release profile for the drug, by varying properties of the membrane.

pancreatic cancer = settings: cited from earlier work
[2] = 1 mm EVA membrane, no pores, 75% infill

SMILES: Nc1ccn([C@@H]2O[C@H](CO)[C@@H](O)C2(F)F)c(=O)n1 [gemcitabine]
- median disease-free survival (pancreatic cancer; Conroy et al (2018), patients after surgery): 12.8 months
- disease-free survival rate at 3 years (pancreatic cancer; Conroy et al (2018)): 21.4%
- median overall survival (pancreatic cancer; Conroy et al (2018)): 35.0 months
- overall survival rate at 3 years (pancreatic cancer; Conroy et al (2018)): 48.6%
- adverse events of grade 3 or 4, share of patients (pancreatic cancer; Conroy et al.): 52.9%

SMILES: O=C1[O][Pt]2([NH][C@@H]3CCCC[C@H]3[NH]2)[O]C1=O [oxaliplatin]
- completeness of release after 7 days [1, 2]: still not complete
- course of release (plateau) [1, 2]: began to plateau after three days
- completeness of release at 7 days (168 hours) ([1]; device, 1 mm EVA membrane, no pores, 75% infill, sponge inside, FIG. 4): not complete
- release plateau ([1]; device, 1 mm EVA membrane, no pores, 75% infill, after 5 days, FIG. 4): 75%
- time to complete release ([1]; exposed gelatin sponge (comparative), FIG. 3): ≤ 7 h

Now from value to compound, other results behind:

- completeness of release after 7 days [1, 2]: still not complete
- course of release (plateau) [1, 2]: began to plateau after three days
SMILES: Nc1nc2c(c(=O)[nH]1)N(C=O)C(CNc1ccc(C(=O)N[C@@H](CCC(=O)O)C(=O)O)cc1)CN2 (stereo partly drawn) [leucovorin]

- completeness of release after 7 days [1, 2]: still not complete
- course of release (plateau) [1, 2]: began to plateau after three days
- release character across all membranes investigated ([1]; device, over 6 days): useful sustained release
SMILES: CCc1c2c(nc3ccc(OC(=O)N4CCC(N5CCCCC5)CC4)cc13)-c1cc3c(c(=O)n1C2)COC(=O)[C@]3(O)CC [irinotecan]
- release rate, membrane pore sizes 3 mm, 4 mm and 5 mm ([1]; 4 pores each, over 6 days, FIG. 6D): as pore size increased the rate of release also increased
- release rate, membrane thickness 1 mm versus 2 mm ([1]; device, over 6 days, FIG. 6A): released faster through the membrane with a thickness of 1 mm
- release rate, 3D printed membrane infill 50%, 75% and 100% ([1]; device, over 6 days, FIG. 6B): as the percentage infill increased, the release rate slowed
- release rate, membranes with one, two or four pores ([1]; pores 3 mm diameter, over 6 days, FIG. 6C): as the number of pores increased the rate of release also increased

- completeness of release after 7 days [1, 2]: still not complete
- course of release (plateau) [1, 2]: began to plateau after three days
SMILES: O=c1[nH]cc(F)c(=O)[nH]1 [fluorouracil]

Reference: US20260091209A1, “DRUG DELIVERY DEVICE” (priority 2022, published 2026)
